Results on four compounds are retold here after publication PMC6930638, “The Masked Polar Group Incorporation (MPGI) Strategy in Drug Design: Effects of Nitrogen Substitutions on Combretastatin and Isocombretastatin Tubulin Inhibitors” (Molecules, 2019).

Data set [1] can be described thus: Aqueous solubility determination (shake flask, UV). The data set is classed as physicochemical. As to conditions: phosphate buffer, pH 7, aqueous buffer, thermodynamic from solid, phosphate buffer pH 7.0, 48 h stirring, filtered, UV; read-out: Solub.
Data set [2] has as its system MCF-7 breast adenocarcinoma. Put plainly: MTT cell antiproliferative assay, MCF-7. Conditions: Homo sapiens, MCF7, 72 h. The class given is cell-based. A general note: Tetrazolium dyes change colour on reduction, which living cells bring about.
The subject of data set [3] is HeLa cervix epithelioid carcinoma. Put plainly: MTT cell antiproliferative assay, HeLa. As to conditions: Homo sapiens, 72 h. The data set is classed as cell-based.
Data set [4] deals with rat primary pancreatic cells. Put plainly: Toxicity against rat primary pancreatic cells (MTT). Conditions: for live cells with respect to the non-treated control (means ± S.E.M.): rat, 7 h, pH 7.4. As to the method: The toxicity of the compounds against rat primary pancreatic cells was evaluated by the MTT protocol (Table 2). […] Sodium taurocholate (NaTc) was also used at high concentrations as a model of acute pancreatitis in vitro.
Rat primary pancreatic cells were isolated as previously described. Afterwards, pancreatic cells were resuspended in Na-HEPES solution (pH 7.4) containing 14 mM glucose, 1% essential amino acid mixture, 1% (w/v) BSA, 0.01% (w/v) STI, 0.5 mM CaCl2 and incubated (5% CO2, at 37 °C) for 7 h in the absence (non-treated control) or the presence of compounds at different concentrations. After the treatment, cells were incubated (5% CO2, at 37 °C) with 0.5 mg/mL MTT for 2 h and the formazan crystals were solubilized with DMSO (v/v). The optical density was read at 570 nm with a reference wavelength of 630 nm. Non-treated cell viability was set as 100%.

The subject of data set [5] is Bovine brain microtubule protein (MTP). Put plainly: Tubulin polymerization inhibition assay (turbidimetry). The class given is biochemical. As to conditions: 1.5 mg/mL MTP; IC50 calculated only if more than 50% inhibition at 20 µM; read-out: TPI IC50.

Converted amounts (≈) assume the structure as drawn. Bounds are passed on as bounds.

Usually IC50 stands for the concentration needed to halve the response being measured.

For the compound `COc1cc(C(=O)c2ccnc(N3CCCC3)c2)cc(OC)c1OC` [Compound 1h, (2-(Pyrrolidin-1-yl)pyridin-4-yl)(3,4,5-trimethoxyphenyl)methanone], the solubility at 48 h in data set [1] was found to be 20 µg/mL (≈ 58.4 µM). The results for the IC50 in data set [2], in data set [3] and in data set [5] were 0.017 µM, 0.018 µM and 9.1 µM, respectively. Moreover, the “toxicity against primary pancreatic cultured cells” value (from here on “toxicity”) in data set [4] was “very low toxicity”. Also, the “live cells with respect to the non-treated control (means ± S.E.M.)” value in data set [4] (0.25 µM) was 103.84 ± 9.20%; in data set [4] (0.5 µM) it was 102.59 ± 14.73%.

As to `C=C(c1ccc(N(C)C)nc1)c1cc(OC)c(OC)c(OC)c1` [Compound 3b, N,N-Dimethyl-5-(1-(3,4,5-trimethoxyphenyl)vinyl)pyridin-2-amine], in data set [1], the solubility at 48 h was 13.5 µg/mL (≈ 42.9 µM). The half-inhibitory concentration (IC50) in data set [2] is 0.081 µM; in data set [3], 0.15 µM; in data set [5], 35.9 µM. Moreover, the “toxicity” value in data set [4] was “very low toxicity”. The “live cells with respect to the non-treated control (means ± S.E.M.)” value in data set [4] (0.25 µM) came to 112.81 ± 19.30%; in data set [4] (0.5 µM), 94.06 ± 13.13%.

For the compound `COc1cc(C=Cc2ccc(N(C)C)nc2)cc(OC)c1OC` [Compound 8b, N,N-dimethyl-5-(3,4,5-trimethoxystyryl)pyridin-2-amine], in data set [1], the solubility at 48 h was found to be 44 µg/mL (≈ 140 µM). Further, the IC50 is 0.063 µM in data set [2], 0.057 µM in data set [3] and 5.1 µM in data set [5]. For the same compound, the “toxicity” value in data set [4] is given as “very low toxicity”. Also, the “live cells with respect to the non-treated control (means ± S.E.M.)” value in data set [4] (0.25 µM) was 94.31 ± 11.83%; in data set [4] (0.5 µM), 91.65 ± 13.88%.

In the case of `COc1cc(C(=O)c2cccc(N(C)C)c2)cc(OC)c1OC` [Compound 1f, (3-(Dimethylamino)phenyl)(3,4,5-trimethoxyphenyl)methanone], the solubility at 48 h in data set [1] was 11 µg/mL (≈ 34.9 µM). Moreover, the results for the IC50 in data set [2], in data set [3] and in data set [5] were 0.32 µM, 0.18 µM and over 20 µM, respectively. Also, the “toxicity” value in data set [4] is on record as “very low toxicity”. The “live cells with respect to the non-treated control (means ± S.E.M.)” value in data set [4] (0.25 µM) is given as 106.59 ± 17.60%; in data set [4] (0.5 µM), 95.97 ± 10.55%.
